Consider two compounds from publication PMC10960024, “Diindoles produced from commensal microbiota metabolites function as endogenous CAR/Nr1i3 ligands” (Nature Communications, 2024).

The Tm is the temperature at the midpoint of the melting transition.

The nature of data set [1]: Liver-to-body weight ratio after treatment. Format: in vivo. The method, then: (§1) 12–15 week-old C57BL/6 J mice were obtained from Jackson Laboratories and were housed on a standard 12 h light/dark cycle. Nr1i3^−/− mice with C57BL/6 J background were obtained from David Moore’s lab (PMID: 11057673) at Baylor College of Medicine, and used at 13–26 weeks of age. Wild-type male, female and Nr1i3^−/− male mice were used in this study, due to known sex-specific CAR activities. Mice were housed in groups of 2–5 mice per cage on a standard 12 h light/dark cycle and fed with rodent chow diet (Inotiv, Teklad rodent diet 2918). Temperature was maintained at 21 °C with a range of 21–24 °C and humidity at 16–51%. National Institute of Health guidelines for the care and use of laboratory animals were followed with all experiments performed as directed by the Institutional Animal Care and Use Committee at the University of Illinois, Urbana-Champaign (UIUC, IACUC protocol: 22183). Mice were acclimatized to the UIUC mouse facility for 2 weeks prior to experiments. DIM and DIE were dissolved in 5% DMSO in corn oil and injected intraperitoneally at 25 mg/kg once daily for three days. After 4 h of the third injection, mice were sacrificed to collect serum, livers and intestines. TCPOBOP was dissolved in corn oil and injected intraperitoneally at 3 mg/kg once and the livers collected after 3 days for further studies. When used to block CAR activity, 100 mg/kg androstenol was injected intraperitoneally 15 min prior to the first DIM or DIE treatment. RNA from mice livers was isolated using TRIzol (Invitrogen) reagent using the manufacturer’s instructions. 3–5 µg of RNA was used to synthesize cDNA with random primers (NEBioLabs) and Maxima Reverse Transcriptase kits (Thermo Fisher Scientific). cDNA was further diluted, and 50 ng was used for SYBR green (Thermo Fisher Scientific) based qRT-PCR. Relative gene expression was calculated by the delta Ct method and normalized to 36b4 levels as loading controls. qPCR primers for gene expression analysis are listed in Supplementary Table 3.

Another data set has as its target T1, hCAR1+A (Homo sapiens, UniProt Q14994, INS274A).
T1 construct: expressed in transfected cells; host or cells: HepG2 (ATCC, HB-8065)
The data set can be described thus: HepG2 CYP2B6-2.2 kb reporter with hCAR1+A. It counts as cell-based. The following applies: 1, 5 and 10 µM, 24 h. The source says: Activities of both firefly and renilla luciferases were detected using a Dual-Luciferase Kit (Promega).

The nature of data set [2]: Diindole levels in tissues of WT and Nr1i3-/- mice. It counts as in vivo. The method, then: as §1, with “TCPOBOP was dissolved in corn oil and injected intraperitoneally at 3 mg/kg once and the livers collected after 3 days for further studies. When used to block CAR activity, 100 mg/kg androstenol was injected intraperitoneally 15 min prior to the first DIM or DIE treatment. RNA from mice livers was isolated using TRIzol (Invitrogen) reagent using the manufacturer’s instructions. 3–5 µg of RNA was used to synthesize cDNA with random primers (NEBioLabs) and Maxima Reverse Transcriptase kits (Thermo Fisher Scientific). cDNA was further diluted, and 50 ng was used for SYBR green (Thermo Fisher Scientific) based qRT-PCR.” left out

The target of the next data set is T2, hCAR LBD-SRC1 protein (Homo sapiens, UniProt Q14994).
T2 construct: The human CAR LBD (Lys^108 – Ser^352) was amplified by PCR from cDNA; HIS6; made in house; host or cells: E. coli BL21(DE3)
T2 sequence (Q14994 108-352): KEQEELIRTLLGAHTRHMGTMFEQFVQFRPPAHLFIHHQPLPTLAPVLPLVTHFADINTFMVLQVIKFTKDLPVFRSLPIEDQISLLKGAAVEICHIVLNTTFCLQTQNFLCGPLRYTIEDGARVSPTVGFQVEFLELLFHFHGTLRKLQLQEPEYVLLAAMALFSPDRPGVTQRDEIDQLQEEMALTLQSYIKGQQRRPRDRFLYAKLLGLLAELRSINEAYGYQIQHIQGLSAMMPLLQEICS
The data set can be described thus: Fluorescence thermal shift assay (TSA). Format: binding. Particulars: diindoles at 12.5 µM; APO Tm 51.5 °C; means of triplicates. The method, then: Purified hCAR LBD-SRC1 protein was assayed in 137 mM NaCl, 2.7 mM KCl, 10 mM Na2HPO4, and 1.8 mM KH2PO4, 0.5% DMSO, pH 7.4, at a final concentration of 2.2 µM. SYPRO Orange was used at a final concentration of 10× (Invitrogen, S6650). Each sample was divided into three 25 µL replicates. Sample solutions were dispensed into 96-well optical reaction plates (Thermo Fisher Scientific, 4306737) and sealed with optical PCR plate sheets (Thermo Fisher Scientific, AB-1170). TSA experiments were carried out using a QuantStudio 12 K Flex Real Time PCR System (Applied Biosystems). The temperature was ramped up from 25 °C to 95 °C at a rate of 0.3 °C/min, and SYPRO orange fluorescence monitored. Raw fluorescence data and melting temperatures were determined using nonlinear regression curve fitting using GraphPad Prism 9.

The next data set has as its target T3, hCAR (Homo sapiens, UniProt Q14994).
T3 construct: expressed in transfected cells; host or cells: primary human hepatocytes infected with Ad/EYFP-hCAR
T3 sequence (Q14994 1-352): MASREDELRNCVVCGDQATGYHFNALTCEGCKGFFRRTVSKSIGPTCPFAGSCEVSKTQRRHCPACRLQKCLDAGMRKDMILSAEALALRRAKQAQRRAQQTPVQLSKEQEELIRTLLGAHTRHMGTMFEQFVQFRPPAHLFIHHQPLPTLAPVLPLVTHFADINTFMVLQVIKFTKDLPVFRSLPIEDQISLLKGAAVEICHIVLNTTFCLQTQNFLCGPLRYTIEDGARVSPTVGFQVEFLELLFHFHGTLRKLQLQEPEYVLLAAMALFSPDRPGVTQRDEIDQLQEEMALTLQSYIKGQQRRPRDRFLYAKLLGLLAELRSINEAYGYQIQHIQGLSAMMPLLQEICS
The data set can be described thus: hCAR nuclear translocation in primary human hepatocytes (Ad/EYFP-hCAR). It counts as cell-based. The following applies: PHHs from two individuals; 10 µM, 8 h. The method, then:
24 h after seeding at 0.25 × 10^6 cells/well in 24-well biocoat plate, PHHs were infected with 2 µL of adenoviral enhanced yellow fluorescent protein-tagged hCAR (Ad/EYFP-hCAR) followed by treatment with 0.1% DMSO, phenobarbital (PB) (1 mM), DIM (10 µM) or DIE (10 µM) for 8 h. Cells were washed with phosphate-buffered saline and fixed for 30 min with 4% formaldehyde at room temperature and then stained with 4,6-diamidine-2-phenylindole dihydrochloride for 30 min after washing three times with phosphate-buffered saline. The subcellular localization of hCAR and nuclei were visualized using a Nikon Eclipse Ti-E inverted fluorescence microscope (Nikon, Edgewood, NY) in YFP/FITC and DAPI fluorescence channels. Compounds were added to the plate in triplicate and results analyzed as detailed below with z-factors calculated as previously described.

T1 sequence (Q14994 with tags, fused parts or gaps isoform Q14994-2 INS270A): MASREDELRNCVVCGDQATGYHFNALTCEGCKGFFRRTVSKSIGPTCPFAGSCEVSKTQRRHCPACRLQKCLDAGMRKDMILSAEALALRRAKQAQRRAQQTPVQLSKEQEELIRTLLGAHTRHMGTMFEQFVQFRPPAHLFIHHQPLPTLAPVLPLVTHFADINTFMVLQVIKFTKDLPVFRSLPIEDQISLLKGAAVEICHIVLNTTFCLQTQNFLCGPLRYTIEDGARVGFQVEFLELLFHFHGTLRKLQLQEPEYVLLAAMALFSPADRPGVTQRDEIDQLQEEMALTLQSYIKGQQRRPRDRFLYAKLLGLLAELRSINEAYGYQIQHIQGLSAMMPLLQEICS
T1 sequence (P19793 whole entry partner): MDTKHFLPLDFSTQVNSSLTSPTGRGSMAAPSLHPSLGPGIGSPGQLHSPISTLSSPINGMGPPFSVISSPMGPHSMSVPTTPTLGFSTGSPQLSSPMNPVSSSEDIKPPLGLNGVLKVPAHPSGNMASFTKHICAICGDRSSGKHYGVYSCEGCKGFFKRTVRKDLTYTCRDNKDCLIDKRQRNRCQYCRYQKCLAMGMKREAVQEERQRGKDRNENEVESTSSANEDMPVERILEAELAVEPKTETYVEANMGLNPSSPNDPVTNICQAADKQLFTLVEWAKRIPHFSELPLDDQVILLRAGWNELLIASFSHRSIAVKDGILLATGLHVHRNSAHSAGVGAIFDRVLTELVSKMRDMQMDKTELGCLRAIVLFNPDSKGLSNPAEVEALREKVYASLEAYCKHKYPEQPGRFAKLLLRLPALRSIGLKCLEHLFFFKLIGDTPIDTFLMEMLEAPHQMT

As for `CC(c1c[nH]c2ccccc12)c1c[nH]c2ccccc12` [DIE, 3,3’-diindolylethane], in data set [1] (post-treatment, compared to control), the “liver weight / liver-to-body weight ratio” value is recorded as “no significant changes”. In addition, the “hCAR1+A activity (CYP2B6 reporter)” value at hCAR1+A was “significantly boost hCAR1+A activity”. Besides, the “compound levels in tissues of Nr1i3-/- versus WT mice” value in data set [2] (duodenum, jejunum, ileum, liver, male mice treated with diindoles) is recorded as “increased dramatically”. Moreover, at hCAR LBD-SRC1 protein, the Tm came out at 59.6 °C. Further, on hCAR, the hCAR nuclear relocation entry was “efficiently promote hCAR nuclear relocation”.
Regarding `c1ccc2c(Cc3c[nH]c4ccccc34)c[nH]c2c1` [DIM, diindolylmethane], the “liver weight / liver-to-body weight ratio” value in data set [1] (mouse, in vivo) is given as “no significant changes”. Also, on hCAR1+A, the “hCAR1+A activity (CYP2B6 reporter)” value is reported as “significantly boost hCAR1+A activity”. Also, the “compound levels in tissues of Nr1i3-/- versus WT mice” value in data set [2] (mouse, in vivo) is listed as “increased dramatically”. Further, the Tm on hCAR LBD-SRC1 protein is 57.1 °C. Besides, the hCAR nuclear relocation entry on hCAR is “efficiently promote hCAR nuclear relocation”.
